Reference: patent EP0335545B2, “Pharmaceutical formulations for parenteral use” (UNIVERSITY OF FLORIDA, priority 1988, dated 1989)
Like-named read-outs stand apart in the source and are kept apart here.

Columns and labels:
[1] = Solid complex of E2-CDS with maltosyl-β-cyclodextrin/dimaltosyl-β-cyclodextrin mixture; assay type: physicochemical
Experimental: In one example of the formulation of a solid complex, an excess of a representative CDS, E2-CDS, was added to a 40% aqueous solution of a mixture of maltosyl-β-cyclodextrin (71%) and various dimaltosyl-β-cyclodextrins (29%) obtained from Ensuiko Sugar Co., Ltd., Lot No. 88190, and mixed for several hours. The suspension was then filtered and freeze-dried, and the amount of complexed drug was determined analytically by UV spectraphotometry. The amount of incorporation was determined to be 81.88 mg/g.

[2] = Aqueous solubility and stability of the E2-CDS-HPCD complex; assay type: physicochemical
Experimental: The E2-CDS-HPCD complex contains about 40 mg of E2-CDS/g and easily gives aqueous solutions containing 5 mg E2-CDS/mL at 20% w/v cyclodextrin. […] The halflife of E2-CDS in such a solution at room temperature in the dark is about 12.5 days (rate: 0.0554 ± 0.0047d^-1).

[3] = Preparation of solid freeze-dried HPCD complexes: degree of incorporation; assay type: physicochemical
Experimental: An excess of E2-CDS was added and the solution then was purged with helium. The resulting suspension was then sonicated for 30 minutes, filtered through a glass filter (ASTM 10-15M, Pyrex No. 36060) and freeze-dried overnight. Best results were obtained by hard-freezing the aqueous solution of the E2-CDS/HPCD complex for at least 10 hours before lyophilization. The degree of complex formation was determined by dissolving a small amount of the dry complex in methanol and then analyzing by high pressure liquid chromatography (HPLC).
An excess of E2-CDS or other CDS was added to a 50% w/w solution of HPCD. The suspension was sonicated for 30 minutes, filtered through 0.45 µm PVDF membranes and freeze-dried. The degree of incorporation was determined either spectrophotometrically or by HPLC. In some cases, the effect of solubilizing agents on the degree of incorporation was examined. This involved adding small amounts of polyoxyethylene 20 cetyl ether (Brij), polyoxyethylene sorbitan monooleate (Tween 80) or ethanol to the aqueous solution prior to lyophilization.
The retention time was 5.2 min. Other compounds were assayed spectrophotometrically.
The solution was degassed and the suspension was sonicated for 30 minutes, after which it was filtered and the filtrate was lyophilized. The dried filtrate contained 65.6 mg testosterone propionate or 29.6 mg T-CDS1 per gram of cyclodextrin complex. Compounds were analyzed for decomposition by thin-layer chromatography and ultraviolet absorption.

[4] = Lung and brain concentrations in male rats after i.v. E2-CDS in DMSO or as HPCD complex (HPLC with pre-column enrichment); assay type: in vivo, Sprague-Dawley rats
Excerpt: The loss of sensitivity resulting from the dilution step in the procedure optimal for pretreatment of biological samples (see sample preparation without extraction) could be compensated for by developing an HPLC system that allows injection of large volumes. A suitable HPLC-method which has been described in the literature [Roth et al, J. Chromatogr. 222: 13-22 (1981)] is based on alternating pre-column sample enrichment. The procedure used herein was as follows: The sample containing the drug is injected with a first pump A, delivering pure water, onto one of two pre-columns, which are alternatingly connected with the injection system by two pneumatically driven valves. Provided a certain lipophilicity, the drug is retained and concentrated on the pre-column, while accompanying water soluble-co-products like proteins are being washed out as long as water is pumped through the pre-column. This allows the direct injection of body fluids. After a certain enrichment time (6 and 8 minutes), simultaneous rotation of the two valves is induced, causing pre-column 1, where the injected drug has been absorbed, to be switched to the solvent stream of the second pump, B. Also, at this point, the recording integrator is started. Pump B delivers the mobile phase, necessary for separation and chromatography, and backflushes the sample from pre-column 1 onto the analytical column. Parallel to this process, pre-column 2 is switched to the water stream of pump A so that a sample can be injected and enriched while the previous one is being eluted (alternating mode). Volumes up to 1800 µL can be injected due to the concentration effect of the enrichment phase.
This system was applicable to the quantification of E2, E2-CDS and E2-Quat. The mobile phase for E2-CDS was: Acetonitrile/water 80:20 at a flow rate of 1.8 mL/minute. Optimal peak shape and retention time for E2 and E2-Ouat were obtained with pump B delivering a mixture of acetonitrile/water 42:58 which contained 0.025 M/L sodium salt of 1-octanesulfonic acid and 0.003 M/L tetrabutylammonium phosphate. […]

[5] = 37°C
Experimental: In this procedure, 27.5 µL of a 5 x 10^-3 M solution of E2-CDS in acetonitrile was added to 2.75 mL of a solution containing 1 x 10^-4 M Fe(CN)6^-4, 0.06 M K^+, 0.001 M Fe(CN)6^-3. All solutions were made using water which had been boiled for 30 minutes and cooled while a stream of pyrogallol-scrubbed nitrogen passed through it. The E2-CDS was introduced via a syringe to the solution which was maintained at 37°C in a thermostated cell holder and contained in an anaerobic screw-top cuvette. […] For a given concentration of ferricyanide ions (6 x 10^-4 to 8 x 10^-3 M), the rate of disappearance of the E2-CDS was determined. This was done by calculating the decrease in the absorbance band at 360 nm (± 10 nm) subtracted from base line absorbance (500 ± 10 nm). A plot of the 1n [Abs] versus time gave a slope for the pseudo-first-order rate constant. This was done at several different ferricyanide ion concentrations. The obtained first-order rate constants were then plotted as a function of ferricyanide ion concentration generating a slope from which the second order rate constant (k0 s^-1 M^-1) was obtained. In examining the effect of 2-hydroxypropyl-β-cyclodextrin on the rate of E2-CDS oxidation, solutions containing the HPCD as well as those ions present in the first phase of the experiment were prepared. The second order constant was derived for each cyclodextrin concentration and a plot developed.

[6] = 15 mg/kg in DMSO relative to 5 mg/kg as complex with HPCD in water, i.v., within the first hour

CN1C=CCC(C(=O)O[C@H]2CC[C@H]3[C@@H]4CCc5cc(O)ccc5[C@H]4CC[C@]23C)=C1 [Example E2-CDS, 3-Hydroxy-17β-[(1-methyl-1,4-dihydropyridin-3-yl)carbonyl]oxyestra-1,3,5(10)-triene]
amount of incorporation ([1]; 40% aqueous maltosyl-β-cyclodextrin (71%) / dimaltosyl-β-cyclodextrins (29%), freeze-dried): 81.88 mg/g | amount of incorporation, comparable figure ([1]; HPCD): approximately 36.2 mg/g | rate (of degradation) ([2]; 5 mg E2-CDS/mL at 20% w/v cyclodextrin, room temperature in the dark): 0.0554 ± 0.0047 day⁻¹ | half-life ([2]; 20% w/v aqueous hpcd, 5 mg E2-CDS/mL at 20% w/v cyclodextrin, room temperature in the dark): ~12.5 days | increase in aqueous solubility by complexation ([2]; 20% w/v cyclodextrin versus water): 25,000 fold | stability of the solid complex [3]: stable as a dry powder | degree of complexation ([3]; 50% (w/w) HPCD, freeze-dried): 20 to 40 mg/g | upper limit for a stable complex ([3]; HPCD complex): approximately 40 mg/g | degree of incorporation ([3]; addition of Brij (0.7% w/w)): 189 mg/g | degree of incorporation after storage ([3]; addition of Brij (0.7% w/w), in 12 days): 42 mg/g | effect on degree of incorporation ([3]; addition of Tween 80 (0.8% w/w) or ethanol (10% v/v)): only modest effects | Amount of Drug in Dry Complex ([3]; freeze-dried complex from 50% w/w HPCD (ASDS 5.1)): 37 mg/g | initial lung concentrations of E2-CDS, corrected for dose [4, 6]: more than ten-fold | initial lung concentrations of E2-Quat, corrected for dose [4, 6]: more than ten-fold | brain levels of E2-Quat, corrected for dose ([4]; after 1 hour, HPCD complex in water compared to DMSO): not significantly different | inhibition of second order rate of oxidation ([5]; 0.5% w/v cyclodextrin): 42% | inhibition of second order rate of oxidation ([5]; 1.0% w/v cyclodextrin): 60% | inhibition of second order rate of oxidation ([5]; 2% cyclodextrin): 81% | reduction in the second order rate of oxidation ([5]; 5-20% cyclodextrin): approximately 90%
